From patent US10533006B2, “Nitrogen-containing heterocycle and carbocycle derivatives having TrkA inhibitory activity” (Shionogi & Co., Ltd., priority 2016, dated 2020)

These molecules were tested against T1, human TrkA (Homo sapiens, UniProt P04629) (assay: Human TrkA inhibition assay). Conditions: human TrkA phosphorylation inhibition, ATP 500 μmol/L; read-out: IC50_nM.
T1 construct: purchased Lifetechnologies PV3144
Assay type: biochemical
Protocol: Seven point five L per well of human TrkA (PV3144, Lifetechnologies, final concentration: 1 nmol/L) suspended in the assay buffer (100 mmol/L 4-(2-hydroxyethyl)-1-piperazineethanesulfonic acid (HEPES), 10 mmol/L magnesium chloride, 0.003 vol % Brij-35, 0.004 vol % Tween20 and 1 mmol/L dithiothreitol (DTT)) was applied in a 384 well plate and the plate was pre-incubated for 15 min at room temperature with 0.4 μL of each compound (final concentration: 200 μmol/L-0.1 nM) dissolved in DMSO. Then, fluorescent substrate (FL-peptide 27, 760424, PerkinElmer, final concentration: 1.5 μmol/L) and ATP (final concentration 500 μmol/L) dissolved in the assay buffer was added in each well. After the incubation of 120 min at 37° C., fifteen μL of termination buffer (100 mmol/L HEPES, 40 mmol/L ethylenediaminetetraacetic acid (EDTA), 10 mmol/L magnesium chloride, 0.003 vol % Brij-35, 0.004 vol % Tween20, 1 mmol/L DTT and 0.16 vol % Coating Reagent 3) was added in each well to stop the enzyme reaction. Fluorescent intensities (FI) of phosphorylated and non-phosphorylated fluorescent substrates were measured by LabChip EZReader II (Caliper LifeSciences, Inc.), and conversion ratio (CR) was calculated by the following formula-1. The CR in the well applied with DMSO alone was used as a negative control and the CR in the well without applying TrkA was used as a positive control. The inhibitory effect of each compound on TrkA phosphorylation was calculated by the following formula-2. CR (%)=(FI of phosphorylated substrate/(FI of phosphorylated substrate+FI of non-phosphorylated substrate))×100 (Formula-1) Phosphorylation inhibition (%)=(1−(CR with compound treatment−CR of positive control)/(CR of negative control−CR of positive control))×100 (Formula-2)
IC50 values (nmol/L) were determined by the logistic regression using the inhibition data in 10 points of 3-fold dilution series at a compound concentration range of 2 μmol/L to 0.1 nmol/L, or 15 points of 3-fold dilution series at the range of 200 μmol/L to 0.04 nmol/L.

T1 sequence (P04629 33-796): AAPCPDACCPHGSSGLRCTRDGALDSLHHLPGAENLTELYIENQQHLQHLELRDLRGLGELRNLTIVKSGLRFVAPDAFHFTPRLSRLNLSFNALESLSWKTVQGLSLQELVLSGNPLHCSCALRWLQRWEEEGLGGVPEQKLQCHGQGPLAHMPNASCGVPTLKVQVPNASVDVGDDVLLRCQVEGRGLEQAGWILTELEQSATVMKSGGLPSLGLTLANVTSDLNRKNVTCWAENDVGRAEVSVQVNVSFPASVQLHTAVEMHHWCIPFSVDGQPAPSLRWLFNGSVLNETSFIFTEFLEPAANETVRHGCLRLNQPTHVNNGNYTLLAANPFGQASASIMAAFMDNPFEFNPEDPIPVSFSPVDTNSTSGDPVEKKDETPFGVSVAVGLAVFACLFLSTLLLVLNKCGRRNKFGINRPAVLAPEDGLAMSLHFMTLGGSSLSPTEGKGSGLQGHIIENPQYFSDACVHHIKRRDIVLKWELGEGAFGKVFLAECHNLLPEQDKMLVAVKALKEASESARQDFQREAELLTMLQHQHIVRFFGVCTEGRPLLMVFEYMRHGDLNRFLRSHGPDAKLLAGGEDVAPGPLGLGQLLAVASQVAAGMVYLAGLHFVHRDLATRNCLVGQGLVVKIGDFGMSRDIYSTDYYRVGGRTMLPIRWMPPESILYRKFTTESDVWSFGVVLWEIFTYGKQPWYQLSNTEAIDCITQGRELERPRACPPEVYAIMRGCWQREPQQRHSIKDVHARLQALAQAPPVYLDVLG

Row | SMILES | IC50
1 | COCC[C@@H]1C[C@@H](NC(=O)Nc2c(C)c(-c3cc(C(=O)NC4CCOCC4)c(=O)n(C)c3)nn2-c2ccccc2)[C@H](c2ccccc2)C1 [Compound I-118] | < 100 nM
2 | COCCN1C[C@@H](NC(=O)Nc2c(C)c(-c3cnc(OC)c(C(=O)NC(=O)N(C)C)c3)nn2-c2ccccc2)[C@H](c2ccccc2)C1 (racemic) [Compound I-158] | < 100 nM
3 | COCCN1C[C@@H](NC(=O)Nc2c(C)c(-c3cc(C(=O)NC4CCOCC4)c(=O)n(CCOC)c3)nn2-c2ccccc2)[C@H](c2ccccc2)C1 (racemic) [Compound I-136] | < 100 nM
4 | COCCN1C[C@@H](NC(=O)Nc2c(C)c(-c3ccc4c(cnn4C)c3)nn2-c2ccccc2)[C@H](c2cnc(F)c(F)c2)C1 (racemic) [Compound I-26] | < 100 nM
5 | CCNC(=O)c1cc(-c2nn(-c3ccccc3)c(NC(=O)N[C@@H]3CN(CCOC)C[C@H]3c3ccccc3)c2C)cn(CCOC)c1=O (racemic) [Compound I-133] | < 100 nM
6 | Cc1c(-c2ccc3c(cnn3C)c2)nn(-c2ccccc2)c1NC(=O)N[C@@H]1C[C@@H](CCOC(F)(F)F)C[C@H]1c1ccc(F)c(F)c1 [Compound I-11] | < 100 nM
7 | COCCN1C[C@@H](NC(=O)Nc2c(C)c(-c3cnc4c(ccn4C)c3)nn2-c2ccccc2)[C@H](c2ccccc2)C1 (racemic) [Compound I-38] | < 100 nM
8 | COCC[C@@H]1C[C@@H](NC(=O)Nc2c(C)c(-c3cc(C(=O)OC)c(=O)n(C)c3)nn2-c2ccccc2)[C@H](c2ccccc2)C1 [Compound I-116] | < 100 nM
9 | CNC(=O)c1cc(-c2nn(-c3ccccc3)c(NC(=O)N[C@@H]3CN(CCOC)C[C@H]3c3ccccc3)c2C)cnc1OCF (racemic) [Compound I-126] | < 100 nM
10 | COCCN1C[C@@H](NC(=O)Nc2c(C)c(-c3ccnc(C(=O)NC4CCOCC4)c3)nn2-c2ccccc2)[C@H](c2ccccc2)C1 (racemic) [Compound I-29] | < 100 nM
11 | COCCN1C[C@@H](NC(=O)Nc2c(C)c(-c3ccc4c(cnn4C)c3)nn2-c2ccccc2)[C@H](c2ccc(F)c(F)c2)C1 [Compound I-6] | < 100 nM
12 | CNC(=O)c1cc(-c2nn(-c3ccccc3)c(NC(=O)N[C@@H]3CN(CCOC)C[C@H]3c3ccccc3)c2C)cnc1OCCOC (racemic) [Compound I-124] | < 100 nM
13 | COCC[C@@H]1C[C@@H](NC(=O)Nc2c(C)c(-c3cc(C(=O)NOCc4ccccc4)c(=O)n(C)c3)nn2-c2ccccc2)[C@H](c2ccccc2)C1 [Compound I-119] | < 100 nM
14 | CNC(=O)c1cc(-c2nn(-c3ccccc3)c(NC(=O)N[C@@H]3CN(CCOC)C[C@H]3c3ccccc3)c2C)cnc1OC(F)F (racemic) [Compound I-128] | < 100 nM
15 | COCC[C@@H]1C[C@@H](NC(=O)Nc2c(C)c(-c3ccc4c(cnn4C)c3)nn2-c2ccccc2)[C@H](c2ccc(F)c(F)c2)N1C [Compound I-9] | < 100 nM
16 | COCCN1C[C@@H](NC(=O)Nc2c(C)c(-c3cnc(OC)c(C(N)=O)c3)nn2-c2ccccc2)[C@H](c2ccccc2)C1 (racemic) [Compound I-161] | < 100 nM
17 | COCCN1C[C@@H](NC(=O)Nc2c(C)c(-c3ccnc(C(=O)N[C@H]4CC[C@@H](O)CC4)c3)nn2-c2ccccc2)[C@H](c2ccccc2)C1 [Compound I-85] | < 100 nM
18 | COCC[C@@H]1C[C@@H](NC(=O)Nc2c(C)c(-c3ccc4c(cnn4C)c3)nn2-c2ccccc2)[C@H](c2ccccc2)C1 [Compound I-21] | < 100 nM
19 | COCCN1C[C@@H](NC(=O)Nc2c(C)c(-c3cnc4nc(C)oc4c3)nn2-c2ccccc2)[C@H](c2ccccc2)C1 (racemic) [Compound I-34] | < 100 nM
20 | CCNC(=O)c1cc(-c2nn(-c3ccccc3)c(NC(=O)N[C@@H]3CN(CCOC)C[C@H]3c3ccccc3)c2C)cnc1OCCOC (racemic) [Compound I-130] | < 100 nM

Same assay, conditions: human TrkA phosphorylation inhibition, ATP 500 μmol/L; read-out: IC50 value

Row | SMILES | IC50
21 | CCN1CCC(NC(=O)c2ccc(-c3nn(-c4ccccc4)c(NC(=O)N[C@@H]4C[C@@H](CCOC)C[C@H]4c4ccccc4)c3C)cc2)CC1 [Compound I-24] | 0.81 nM
